Experiments:
[1] = system: wheat (Triticum aestivum, variety "TRISO"); test: Root growth assay, seed treatment, wheat; format: in vivo; design: key to Root Growth (Root Growth of "100" is set as the standard): relative root growth; 100 = standard (untreated control); settings: for Root Growth (Root Growth of "100" is set as the standard): wet root weight 16 (±2) days post treatment; for effect as plant growth regulator in wheat: result in words, at various/different concentrations
Excerpt: (§1) Plant roots are a highly proliferative tissue that allows an easy accessible, cheap and short term screening method for plant growth regulators. The results obtained can easily be transferred to the overall effects on a plant of plant growth regulators identified by such a system. By using this root assay one is enabled to determine the effect of a seed treatment to root growth and/or germination and/or changes in habitat of germinated plants in order to identify the possible use as a yield enhancer. Two seeds of wheat (Triticum aestivum, variety “TRISO”) or 1 seed of maize (Zea mays, variety “LORENZO”) per hole in a plastic tray which contains an architecture of 8×13 holes were placed on compost soil covered with sand. These seeds were treated with 100 μl/hole, which creates an application volume of approx. 1200 l/ha, of a compound solution at active ingredient rates equivalent to 100, 10 and 1 g a.i./ha of each compound using an robotic application system (Lizzy Spray Robotics). Six replicates in a row of each compound and concentration were done. The outer rim of the above defined plastic tray was untreated to avoid false negative effects and the middle row (No. 7) was used as untreated control. The treated seeds were allowed to dry for approx. 4 hours and subsequently covered with sand and watered. The trays were stored in climate chambers with 14 hours lighting at a temperature of 24° C. (±2) at daytime and 16° C. (±2) at night and relative humidity (rH) of 60% and daily watered. Assessments were done 16 (±2) days post treatment by counting the germinated plants and assessing the phytotoxicity symptoms and percentage. In addition, the roots were washed out and the shoots were cut directly above the seed and the wet roots were placed on dry paper towels for approximately 30 minutes and weighted afterwards. This procedure provides a similar grade of moisture to the roots so that a comparison of the weights is possible.
(§2) The effects observed concerning Root Growth given in column 2 (Root Growth of “100” is set as the standard) are directed to concentrations that are equivalent to 100, 10, 1 g a.i./ha, each.

[2] = system: maize (Zea mays, variety "LORENZO"); test: Root growth assay, seed treatment, maize; format: in vivo; settings: for Root Growth (Root Growth of "100" is set as the standard): wet root weight 16 (±2) days post treatment; for effect as plant growth regulator in maize: result in words
Excerpt: as §1, §2

Row | Compound | Root Growth (Root Growth of "100" is set as the standard) ([1]; 1 g a.i./ha) | Root Growth (Root Growth of "100" is set as the standard) ([1]; 10 g a.i./ha) | Root Growth (Root Growth of "100" is set as the standard) ([1]; 100 g a.i./ha) | effect as plant growth regulator in wheat [1] | Root Growth (Root Growth of "100" is set as the standard) ([2]; 1 g a.i./ha) | Root Growth (Root Growth of "100" is set as the standard) ([2]; 10 g a.i./ha) | Root Growth (Root Growth of "100" is set as the standard) ([2]; 100 g a.i./ha) | effect as plant growth regulator in maize [2] | melting point
1 | COc1ccc(Nc2nc(N)c(C(=O)c3cccnc3)s2)cc1 [Compound 1.106] | 145 | 99 | 90 | superior effect | – | – | – | – | –
2 | Nc1nc(Nc2ccccc2)sc1C(=O)c1ccc(OC(F)F)cc1 [Compound 1.53] | 125 | 107 | 101 | superior effects | 91 | 85 | 108 | superior effects | –
3 | Nc1nc(Nc2ccccc2)sc1C(=O)c1cccs1 [Compound 1.79] | 88 | 88 | 73 | – | 108 | 116 | 105 | superior effect | –
4 | N#Cc1ccc(Nc2nc(N)c(C(=O)c3cccnc3)s2)cc1 [Compound 1.108] | 78 | 95 | 131 | superior effect | – | – | – | – | –
5 | CSc1ccc(Nc2nc(N)c(C(=O)c3cccnc3)s2)cc1 [Compound 1.117] | 111 | 126 | 125 | – | – | – | – | – | –
6 | Nc1nc(NCC2CCCCC2)sc1C(=O)C(Cc1ccccc1)NC(=O)OCc1ccccc1 (stereo not shown) [Compound 1.139] | 130 | 66 | 120 | – | – | – | – | – | –
7 | Nc1nc(Nc2cccnc2)sc1C(=O)c1ccc(OC(F)F)cc1 [Compound 1.60, [4-Amino-2-(pyridin-3-yl-amino)-thiazol-5-yl]-(4-difluoromethoxyphenyl)-methanone] | 98 | 57 | 54 | – | 191 | 105 | 109 | superior effect | 143 °C
8 | Nc1nc(Nc2cccc(C(F)(F)F)c2)sc1C(=O)c1ccc(OC(F)F)cc1 [Compound 1.58] | 123 | 112 | 103 | superior effects | 91 | 107 | 105 | superior effects | –
9 | Nc1nc(Nc2ccc(OC(F)(F)F)cc2)sc1C(=O)c1cccnc1 [Compound 1.118] | 95 | 122 | 113 | – | – | – | – | – | –
10 | Nc1nc(Nc2ccccc2)sc1C(=O)c1cccnc1 [Compound 1.105] | 72 | 99 | 123 | superior effect | – | – | – | – | –

Source: patent US20070167329A1, “Plant growth regulation” (Bayer CropScience GmbH, priority 2003, published 2007)
